From ChEMBL document CHEMBL5143716, “Design, Synthesis, and Optimization of Macrocyclic Peptides as Species-Selective Antimalaria Proteasome Inhibitors” (J Med Chem, 2022)
Values after ≈ are worked out from the molar mass of the structure shown.

Key:
[1] = Permeability of the compound in PRISMA HT buffer at pH 7.4 at 10 uM incubated for 3 hrs by PAMPA based LC/MS/MS analysis; type: ADME; settings: read-out: permeability
human MDR1 (P-gp) = test: Apparent permeability across apical to basolateral side in pig LLC-PK1 cells expressing human MDR1 at 10 uM measured after 60 mins by LC/MS/MS analysis; type: ADME, cell-based, Sus scrofa
[2] = Kinetic solubility of compound in PBS at pH 6.8 incubated for 24 hrs by UPLC/MS analysis; type: physicochemical; settings: read-out: Kinetic_solubility
[3] = AUC in mouse at […], iv administered as cassette dose; type: ADME, organism-based; parameters: dose 0.25 mg/kg, route iv; settings: in vivo
[4] = Hepatic blood flow in mouse at […], iv administered as cassette dose; type: ADME, organism-based; settings: in vivo, dose 0.25 mg/kg

| SMILES | Papp at 3 h, 10 µM [1] [×10⁻⁶ cm/s] | Papp A→B at 1 h, 10 µM (human MDR1 (P-gp)) [×10⁻⁶ cm/s] | solubility kinetic at 24 h [2] [µg/mL] | AUC [3] [ng·h/mL] | QH [4] [mL/min/kg] |
| --- | --- | --- | --- | --- | --- |
| O=C(NCC1CC1)[C@@H]1CCCCOc2cccc(c2)C[C@H](N2CCCC2=O)C(=O)N[C@@H](CCc2ccccc2)C(=O)N1 | 10.3 | 6.8 | 49 (≈ 85.3 µM) |  |  |
| O=C(NC1CCCC1)[C@@H]1CCCCOc2cccc(c2)C[C@H](N2CCCC2=O)C(=O)N[C@@H](CCN2CCOCC2)C(=O)N1 | 1.5 | > 0.2 | > 130 |  |  |
| CN(C)[C@H]1Cc2cccc(c2)OCCCC[C@@H](C(=O)NC2CCCC2)NC(=O)[C@H](CCN2CCOCC2)NC1=O | 2 | 0.12 | > 130 |  |  |
| CC(=O)N[C@H]1Cc2cccc(c2)Oc2cccc(c2)C[C@@H](C(=O)NCc2ccc(C)cc2)NC(=O)[C@H](CCc2ccccc2)NC1=O | 2.2 | > 3.4 |  |  |  |
| CN[C@H]1Cc2cccc(c2)OCCCC[C@@H](C(=O)NC2CCCC2)NC(=O)[C@H](CCN2CCOCC2)NC1=O |  | > 0.2 | > 140 |  |  |
| Cn1cc(CNC(=O)[C@@H]2CCCCOc3cccc(c3)C[C@H](N3CCCC3=O)C(=O)N[C@@H](CCc3ccccc3)C(=O)N2)cn1 | 1.1 | > 0.6 | > 120 |  |  |
| O=C(NCC(F)F)[C@@H]1CCCCOc2cccc(c2)C[C@H](N2CCCC2=O)C(=O)N[C@@H](CCc2ccccc2)C(=O)N1 | 7.2 | > 1.1 | 35 (≈ 59.9 µM) |  |  |
| O=C(NC1CCCC1)[C@@H]1CCCCOc2cccc(c2)C[C@H](N2CCC2)C(=O)N[C@@H](CCN2CCOCC2)C(=O)N1 |  | > 0.2 | > 140 |  |  |
| O=C(NC1CCCC1)[C@@H]1CCCCOc2cccc(c2)C[C@H](N2CCCC2=O)C(=O)N[C@@H](CCc2ccc(F)cc2)C(=O)N1 | 21.2 | 4.5 | 17 (≈ 28 µM) |  |  |
| O=C(NC1CCCC1)[C@@H]1CCCCOc2cccc(c2)C[C@H](N2CCCC2=O)C(=O)N[C@@H](CCc2ccccc2)C(=O)N1 | 15.1 | 5.7 | 100 (≈ 170 µM) |  |  |
| O=C1N[C@H](c2nnc(C(F)(F)F)o2)CCCCOc2cccc(c2)C[C@H](N2CCCC2=O)C(=O)N[C@H]1CCc1ccccc1 | 16 | 1.1 | 6.2 (≈ 10.1 µM) |  |  |
| O=C(NC1(C(F)(F)F)CC1)[C@@H]1CCCCOc2cccc(c2)C[C@H](N2CCCC2=O)C(=O)N[C@@H](CCc2ccccc2)C(=O)N1 | 14.5 | 4.4 | 31 (≈ 49.3 µM) |  |  |
| O=C1N[C@H](c2nnc(C(F)(F)F)[nH]2)CCCCOc2cccc(c2)C[C@H](N2CCCC2=O)C(=O)N[C@H]1CCc1ccccc1 | 8.2 | > 2.1 | 2 (≈ 3.26 µM) |  |  |
| CC1(C)Cc2cccc(c2)OCCCC[C@@H](C(=O)NC2CCCC2)NC(=O)[C@H](CCN2CCOCC2)NC1=O | 26.9 | 3.5 | 90 (≈ 166 µM) |  |  |
| O=C(NC1CCCC1)[C@@H]1CCCCOc2cccc(c2)CC2(COC2)C(=O)N[C@@H](CCN2CCOCC2)C(=O)N1 | 8.9 | > 2.8 | 68 (≈ 122 µM) |  |  |
| O=C(NC1CCCC1)[C@@H]1CCCCOc2cccc(c2)C[C@H](N2CCCC2=O)C(=O)N[C@@H](COc2ccccc2)C(=O)N1 | 20.8 |  | 20 (≈ 33.9 µM) |  |  |
| O=C(NCC(F)(F)F)[C@@H]1CCCCOc2cccc(c2)C[C@H](N2CCCC2=O)C(=O)N[C@@H](CCc2ccccc2)C(=O)N1 | 18.7 | 5.3 | 76 (≈ 126 µM) | 0.6 | 93.33 |
| O=C(NCC(F)(F)F)[C@@H]1Cc2cccc(c2)Oc2cccc(c2)C[C@H](N2CCCC2=O)C(=O)N[C@@H](CCc2ccccc2)C(=O)N1 |  |  | 3.8 (≈ 5.97 µM) |  |  |
| O=C(NC1CCCC1)[C@@H]1CCCCOc2cccc(c2)C[C@H](N2CCCC2=O)C(=O)N[C@@H](CCN2CCC(F)(F)CC2)C(=O)N1 | 13.3 | 4 | > 130 |  |  |
| CC(=O)N[C@H]1Cc2cccc(c2)Oc2cccc(c2)C[C@@H](C(=O)NCC(F)(F)F)NC(=O)[C@H](CCc2ccccc2)NC1=O |  | > 0.077 | < 1.4 |  |  |
| Cc1ccc(CNC(=O)[C@@H]2Cc3cccc(c3)Oc3cccc(c3)C[C@H](N)C(=O)N[C@@H](CCc3ccccc3)C(=O)N2)cc1 |  | > 0.29 | < 1.6 |  |  |
| O=C(NCC(F)(F)F)[C@@H]1COCCOc2cccc(c2)C[C@H](N2CCCC2=O)C(=O)N[C@@H](CCc2ccccc2)C(=O)N1 | 12 |  | < 130 |  |  |
